From ChEMBL document CHEMBL5724806, “Unraveling interindividual differences and functional consequences of gut microbial metabolism of immunosuppressants” (2024)

Legend:
Type in all cases: ADME
[1] = (§1) The drug is tested on Coprococcus comes strain: ATCC27758 for biotransformation under anaerobic condition. The drug concentrations were measured over 6 timepoints collected between 0 and 12 hours of incubation by liquid-chromatography-coupled mass spectrometry (LC–MS); design: dose 5 uM, timepoint 0, 1.5, 3, 6, 9, 12 hours; details: 5 µM
[2] = (§2) The drug is tested on Streptococcus salivarius strain: DSM20560 for biotransformation under microaerobic condition. The drug concentrations were measured over 6 timepoints collected between 0 and 12 hours of incubation by liquid-chromatography-coupled mass spectrometry (LC–MS); design: dose 5 uM, timepoint 0, 1.5, 3, 6, 9, 12 hours; details: 5 µM
[3] = as §1, with “the gut metagenome community of T-03 with ENA study accession number: PRJEB31790” for “Coprococcus comes strain: ATCC27758”, “7” for “6”; design: dose 5 uM, timepoint 0, 0.75, 1.5, 3, 6, 9, 12 hours; details: 5 µM
[4] = The drug is tested on Bifidobacterium adolescentis strain: DSM20083 for biotransformation under anaerobic condition. The drug concentrations were measured over 6 timepoints collected between 0 and 12 hours of incubation by liquid-chromatography-coupled mass spectrometry (LC–MS); design: dose 5 uM, timepoint 0, 1.5, 3, 6, 9, 12 hours; details: 5 µM
[5] = The drug is tested on Enterococcus faecalis strain: ATCC29212 for biotransformation under anaerobic condition. The drug concentrations were measured over 6 timepoints collected between 0 and 12 hours of incubation by liquid-chromatography-coupled mass spectrometry (LC–MS); design: dose 5 uM, timepoint 0, 1.5, 3, 6, 9, 12 hours; details: 5 µM
[6] = as §2, with “the gut metagenome community of A-02 with ENA study accession number: PRJEB31790” for “Streptococcus salivarius strain: DSM20560”, “7” for “6”; design: dose 5 uM, timepoint 0, 0.75, 1.5, 3, 6, 9, 12 hours; details: 5 µM
[7] = The drug is tested on Streptococcus salivarius strain: DSM20560 for biotransformation under anaerobic condition. The drug concentrations were measured over 6 timepoints collected between 0 and 12 hours of incubation by liquid-chromatography-coupled mass spectrometry (LC–MS); design: dose 5 uM, timepoint 0, 1.5, 3, 6, 9, 12 hours; details: 5 µM
[8] = The drug is tested on Odoribacter splanchnicus strain: DSM20712 for biotransformation under anaerobic condition. The drug concentrations were measured over 6 timepoints collected between 0 and 12 hours of incubation by liquid-chromatography-coupled mass spectrometry (LC–MS); design: dose 5 uM, timepoint 0, 1.5, 3, 6, 9, 12 hours; details: 5 µM
[9] = as §2, with “the gut metagenome community of T-04 with ENA study accession number: PRJEB31790” for “Streptococcus salivarius strain: DSM20560”, “7” for “6”; design: dose 5 uM, timepoint 0, 0.75, 1.5, 3, 6, 9, 12 hours; details: 5 µM
[10] = The drug is tested on Prevotella copri strain: DSM18205 for biotransformation under anaerobic condition. The drug concentrations were measured over 6 timepoints collected between 0 and 12 hours of incubation by liquid-chromatography-coupled mass spectrometry (LC–MS); design: dose 5 uM, timepoint 0, 1.5, 3, 6, 9, 12 hours; details: segatella copri, 5 µM
[11] = The drug is tested on Lactobacillus paracasei strain: ATCC27092 for biotransformation under microaerobic condition. The drug concentrations were measured over 6 timepoints collected between 0 and 12 hours of incubation by liquid-chromatography-coupled mass spectrometry (LC–MS); design: dose 5 uM, timepoint 0, 1.5, 3, 6, 9, 12 hours; details: lacticaseibacillus paracasei, 5 µM
[12] = The drug is tested on Actinomyces graevenitzii strain: DSM15540 for biotransformation under microaerobic condition. The drug concentrations were measured over 6 timepoints collected between 0 and 12 hours of incubation by liquid-chromatography-coupled mass spectrometry (LC–MS); design: dose 5 uM, timepoint 0, 1.5, 3, 6, 9, 12 hours; details: 5 µM
[13] = as §1, with “the gut metagenome community of A-02 with ENA study accession number: PRJEB31790” for “Coprococcus comes strain: ATCC27758”, “7” for “6”; design: dose 5 uM, timepoint 0, 0.75, 1.5, 3, 6, 9, 12 hours; details: 5 µM
[14] = as §1, with “the gut metagenome community of P-01 with ENA study accession number: PRJEB31790” for “Coprococcus comes strain: ATCC27758”, “7” for “6”; design: dose 5 uM, timepoint 0, 0.75, 1.5, 3, 6, 9, 12 hours; details: 5 µM
[15] = The drug is tested on Lactobacillus ruminis strain: ATCC25644 for biotransformation under microaerobic condition. The drug concentrations were measured over 6 timepoints collected between 0 and 12 hours of incubation by liquid-chromatography-coupled mass spectrometry (LC–MS); design: dose 5 uM, timepoint 0, 1.5, 3, 6, 9, 12 hours; details: ligilactobacillus ruminis, 5 µM
[16] = The drug is tested on Escherichia coli strain: DSM27469 for biotransformation under microaerobic condition. The drug concentrations were measured over 6 timepoints collected between 0 and 12 hours of incubation by liquid-chromatography-coupled mass spectrometry (LC–MS); design: dose 5 uM, timepoint 0, 1.5, 3, 6, 9, 12 hours; details: 5 µM
[17] = The drug is tested on Alloscardovia omnicolens strain: DSM21503 for biotransformation under anaerobic condition. The drug concentrations were measured over 6 timepoints collected between 0 and 12 hours of incubation by liquid-chromatography-coupled mass spectrometry (LC–MS); design: dose 5 uM, timepoint 0, 1.5, 3, 6, 9, 12 hours; details: 5 µM
[18] = as §2, with “the gut metagenome community of T-03 with ENA study accession number: PRJEB31790” for “Streptococcus salivarius strain: DSM20560”, “7” for “6”; design: dose 5 uM, timepoint 0, 0.75, 1.5, 3, 6, 9, 12 hours; details: 5 µM
[19] = The drug is tested on Escherichia coli strain: DSM27469 for biotransformation under anaerobic condition. The drug concentrations were measured over 6 timepoints collected between 0 and 12 hours of incubation by liquid-chromatography-coupled mass spectrometry (LC–MS); design: dose 5 uM, timepoint 0, 1.5, 3, 6, 9, 12 hours; details: 5 µM
[20] = as §2, with “the gut metagenome community of T-05 with ENA study accession number: PRJEB31790” for “Streptococcus salivarius strain: DSM20560”, “7” for “6”; design: dose 5 uM, timepoint 0, 0.75, 1.5, 3, 6, 9, 12 hours; details: 5 µM
[21] = The drug is tested on Lactobacillus reuteri strain: DSM20016 for biotransformation under anaerobic condition. The drug concentrations were measured over 6 timepoints collected between 0 and 12 hours of incubation by liquid-chromatography-coupled mass spectrometry (LC–MS); design: dose 5 uM, timepoint 0, 1.5, 3, 6, 9, 12 hours; details: limosilactobacillus reuteri, 5 µM
[22] = as §2, with “the gut metagenome community of A-10 with ENA study accession number: PRJEB31790” for “Streptococcus salivarius strain: DSM20560”, “7” for “6”; design: dose 5 uM, timepoint 0, 0.75, 1.5, 3, 6, 9, 12 hours; details: 5 µM
[23] = as §1, with “the gut metagenome community of A-03 with ENA study accession number: PRJEB31790” for “Coprococcus comes strain: ATCC27758”, “7” for “6”; design: dose 5 uM, timepoint 0, 0.75, 1.5, 3, 6, 9, 12 hours; details: 5 µM
[24] = The drug is tested on Bacteroides stercoris strain: HM 1036 for biotransformation under anaerobic condition. The drug concentrations were measured over 6 timepoints collected between 0 and 12 hours of incubation by liquid-chromatography-coupled mass spectrometry (LC–MS); design: dose 5 uM, timepoint 0, 1.5, 3, 6, 9, 12 hours; details: 5 µM
[25] = as §1, with “the gut metagenome community of T-04 with ENA study accession number: PRJEB31790” for “Coprococcus comes strain: ATCC27758”, “7” for “6”; design: dose 5 uM, timepoint 0, 0.75, 1.5, 3, 6, 9, 12 hours; details: 5 µM
[26] = as §2, with “the gut metagenome community of P-01 with ENA study accession number: PRJEB31790” for “Streptococcus salivarius strain: DSM20560”, “7” for “6”; design: dose 5 uM, timepoint 0, 0.75, 1.5, 3, 6, 9, 12 hours; details: 5 µM
[27] = as §2, with “the gut metagenome community of P-03 with ENA study accession number: PRJEB31790” for “Streptococcus salivarius strain: DSM20560”, “7” for “6”; design: dose 5 uM, timepoint 0, 0.75, 1.5, 3, 6, 9, 12 hours; details: 5 µM
[28] = The drug is tested on Lactobacillus paracasei strain: ATCC27092 for biotransformation under anaerobic condition. The drug concentrations were measured over 6 timepoints collected between 0 and 12 hours of incubation by liquid-chromatography-coupled mass spectrometry (LC–MS); design: dose 5 uM, timepoint 0, 1.5, 3, 6, 9, 12 hours; details: lacticaseibacillus paracasei, 5 µM
[29] = The drug is tested on Bifidobacterium longum strain: DSM20088 for biotransformation under anaerobic condition. The drug concentrations were measured over 6 timepoints collected between 0 and 12 hours of incubation by liquid-chromatography-coupled mass spectrometry (LC–MS); design: dose 5 uM, timepoint 0, 1.5, 3, 6, 9, 12 hours; details: 5 µM
[30] = as §2, with “the gut metagenome community of A-07 with ENA study accession number: PRJEB31790” for “Streptococcus salivarius strain: DSM20560”, “7” for “6”; design: dose 5 uM, timepoint 0, 0.75, 1.5, 3, 6, 9, 12 hours; details: 5 µM

SMILES | Bacterial Biotransformation [1] | Bacterial Biotransformation [2] | Bacterial Biotransformation [3] | Bacterial Biotransformation [4] | Bacterial Biotransformation [5] | Bacterial Biotransformation [6] | Bacterial Biotransformation [7] | Bacterial Biotransformation [8] | Bacterial Biotransformation [9] | Bacterial Biotransformation [10] | Bacterial Biotransformation [11] | Bacterial Biotransformation [12] | Bacterial Biotransformation [13] | Bacterial Biotransformation [14] | Bacterial Biotransformation [15] | Bacterial Biotransformation [16] | Bacterial Biotransformation [17] | Bacterial Biotransformation [18] | Bacterial Biotransformation [19] | Bacterial Biotransformation [20] | further results
C[C@]12C=CC(=O)C=C1CC[C@@H]1[C@@H]2[C@@H](O)C[C@@]2(C)[C@H]1CC[C@]2(O)C(=O)CO [PREDNISOLONE] | Compound NOT metabolized | Compound NOT metabolized | Compound NOT metabolized | Compound NOT metabolized | Compound NOT metabolized | Compound metabolized | Compound NOT metabolized | Compound NOT metabolized | Compound NOT metabolized | Compound NOT metabolized | Compound NOT metabolized | Compound NOT metabolized | Compound metabolized | Compound metabolized | Compound NOT metabolized | Compound NOT metabolized | Compound NOT metabolized | Compound NOT metabolized | Compound NOT metabolized | Compound NOT metabolized | Bacterial Biotransformation [21]: Compound NOT metabolized; Bacterial Biotransformation [22]: Compound metabolized; Bacterial Biotransformation [23]: Compound metabolized; Bacterial Biotransformation [24]: Compound NOT metabolized; Bacterial Biotransformation [25]: Compound NOT metabolized; Bacterial Biotransformation [26]: Compound metabolized; Bacterial Biotransformation [27]: Compound metabolized; Bacterial Biotransformation [28]: Compound NOT metabolized; Bacterial Biotransformation [29]: Compound NOT metabolized; Bacterial Biotransformation [30]: Compound metabolized
C[C@]12C=CC(=O)C=C1CC[C@@H]1[C@@H]2C(=O)C[C@@]2(C)[C@H]1CC[C@]2(O)C(=O)CO [PREDNISONE] | Compound NOT metabolized | Compound NOT metabolized | Compound NOT metabolized | Compound NOT metabolized | Compound NOT metabolized | Compound metabolized | Compound NOT metabolized | Compound NOT metabolized | Compound NOT metabolized | Compound NOT metabolized | Compound NOT metabolized | Compound NOT metabolized | Compound metabolized | Compound metabolized | Compound NOT metabolized | Compound NOT metabolized | Compound NOT metabolized | Compound NOT metabolized | Compound NOT metabolized | Compound metabolized | Bacterial Biotransformation [21]: Compound NOT metabolized; Bacterial Biotransformation [22]: Compound metabolized; Bacterial Biotransformation [23]: Compound metabolized; Bacterial Biotransformation [24]: Compound NOT metabolized; Bacterial Biotransformation [25]: Compound NOT metabolized; Bacterial Biotransformation [26]: Compound metabolized; Bacterial Biotransformation [27]: Compound metabolized; Bacterial Biotransformation [28]: Compound NOT metabolized; Bacterial Biotransformation [29]: Compound NOT metabolized; Bacterial Biotransformation [30]: Compound metabolized
CNC(=C[N+](=O)[O-])NCCSCc1ccc(CN(C)C)o1 [RANITIDINE] | Compound NOT metabolized | Compound NOT metabolized | Compound NOT metabolized | Compound NOT metabolized | Compound NOT metabolized | Compound metabolized | Compound NOT metabolized | Compound NOT metabolized | Compound NOT metabolized | Compound NOT metabolized | Compound NOT metabolized | Compound NOT metabolized | Compound metabolized | Compound metabolized | Compound NOT metabolized | Compound NOT metabolized | Compound NOT metabolized | Compound NOT metabolized | Compound NOT metabolized | Compound NOT metabolized | Bacterial Biotransformation [21]: Compound NOT metabolized; Bacterial Biotransformation [22]: Compound NOT metabolized; Bacterial Biotransformation [23]: Compound metabolized; Bacterial Biotransformation [24]: Compound NOT metabolized; Bacterial Biotransformation [25]: Compound NOT metabolized; Bacterial Biotransformation [26]: Compound metabolized; Bacterial Biotransformation [27]: Compound NOT metabolized; Bacterial Biotransformation [28]: Compound NOT metabolized; Bacterial Biotransformation [29]: Compound NOT metabolized; Bacterial Biotransformation [30]: Compound metabolized
